Reference: patent US20240368664A1, “LIVE YEAST BIOSENSORS AND METHODS OF USE THEREOF” (priority 2021, published 2024)
“And” between values parts separate entries of the source, which are not always exact repeats. Identical values can stand only once. Like-named read-outs stand apart in the source and are kept apart here. No end group written: not given here.

Key:
[1] = biological target: T1, Candida albicans pheromone GPCR CaSte2 (Candida albicans); assay: cell-based or functional assay
T1 sequence: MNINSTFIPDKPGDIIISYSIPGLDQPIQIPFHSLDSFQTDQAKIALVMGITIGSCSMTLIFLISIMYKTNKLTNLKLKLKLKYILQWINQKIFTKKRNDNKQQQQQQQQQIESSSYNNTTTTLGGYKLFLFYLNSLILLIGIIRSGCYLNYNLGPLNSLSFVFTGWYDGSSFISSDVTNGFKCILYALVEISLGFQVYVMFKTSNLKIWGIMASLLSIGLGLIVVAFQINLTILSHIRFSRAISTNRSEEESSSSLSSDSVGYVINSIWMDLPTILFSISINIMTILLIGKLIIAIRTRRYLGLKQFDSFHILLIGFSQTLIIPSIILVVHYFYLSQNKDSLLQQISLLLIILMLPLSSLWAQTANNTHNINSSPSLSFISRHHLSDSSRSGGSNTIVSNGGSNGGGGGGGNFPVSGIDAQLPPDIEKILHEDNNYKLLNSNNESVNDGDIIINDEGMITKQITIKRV

[2] = biological target: T1, Candida albicans pheromone GPCR CaSte2 (Candida albicans); assay: cell-based or functional assay; design: EC50 compared to the native CaPep (orders of magnitude): unit not given beside the values
[3] = biological target: C. albicans pheromone peptide (CaPep) (Candida albicans); assay: cell-based or functional assay
[4] = Metal-binding peptide absorbance scan; assay type: physicochemical
[5] = biological target: S. cerevisiae pheromone peptide (ScPep) (Saccharomyces cerevisiae); assay: cell-based or functional assay
A. clavatus GPCR = assay type: cell-based; conditions: 40 μM peptide
Experimental: (§1) FIGS. 6A-6B show Aspergillus spp peptide cross-reactivity with Aspergillus spp GPCRs. […] The test concentration was set at 40 μM of a given peptide ligand.
(§2) Next, 13 GPCRs of all genome-mined Aspergillus species, including A. fumigatus from Example 1 and S. cerevisiae, along with inducible fluorescent readout were integrated into optimized parent strain. S. cerevisiae was included to test cross-reactivity with S. cerevisiae GPCR and peptide, since this peptide/GPCR pair will be used for building multi-cellular amplification communities. Then, each strain was activated with all Aspergillus peptides and S. cerevisiae peptide (FIG. 6A). Most of the Aspergillus GPCRs were responsive to at least one peptide, except A. terreus, A. flavus/A. oryzae (same GPCR sequence), A. niger and A. nidulans which were not responsive to any tested peptide. […] The majority of peptides have the same sequence (A. fischeri, A. fumigatus, A. lentulus, A. novofumigatus, A. udagawae and A. viridinutans) and the other active peptides differ only in the third amino acid position from N-terminus (A. clavatus, A. flavus and A. oryzae).

[6] = Cyclic voltammetry of peptides and copper-peptide complexes; assay type: physicochemical; conditions: for redox potential peak of the Cu2+ complex: 1 mM tripeptide, 1 mM CuCl2, 50 mM Tris/HCl (pH 7.4), 0.1 M NaClO4, glassy carbon, 0.3 V/s; for potential peaks in cyclic voltammogram: 500 μM peptide in 10 mM KCl, scan rates 0.2, 0.1, 0.05 V/s
[7] = tested on: Aspergillus spp and S. cerevisiae GPCRs; assay type: cell-based; conditions: 40 μM peptide
Experimental: as §1, §2

CaSte2 = CaSte2 (yTC384), no protease; Hill function best-fit ± standard error
[8] = tested on: CaSte2 with protease CaBar1; conditions: for Hill Slope: CaSte2 + CaBar1 (yBB02), Hill function best-fit ± standard error; for cleavage by CaBar1 protease: judged from CaSte2 activation with/without CaBar1
[9] = tested on: CaSte2 with protease CaBar1; conditions: read-out: "EC50" of the first response phase; biphasic dose-response, phase treated as separate Hill fit
[10] = tested on: SoSte2 with peptide proteases; assay type: cell-based, Schizosaccharomyces octosporus
[11] = biological target: T2, Botrytis cinerea cognate pheromone receptor (BcSte2) (Botrytis cinerea); assay: cell-based or functional assay
T2 sequence: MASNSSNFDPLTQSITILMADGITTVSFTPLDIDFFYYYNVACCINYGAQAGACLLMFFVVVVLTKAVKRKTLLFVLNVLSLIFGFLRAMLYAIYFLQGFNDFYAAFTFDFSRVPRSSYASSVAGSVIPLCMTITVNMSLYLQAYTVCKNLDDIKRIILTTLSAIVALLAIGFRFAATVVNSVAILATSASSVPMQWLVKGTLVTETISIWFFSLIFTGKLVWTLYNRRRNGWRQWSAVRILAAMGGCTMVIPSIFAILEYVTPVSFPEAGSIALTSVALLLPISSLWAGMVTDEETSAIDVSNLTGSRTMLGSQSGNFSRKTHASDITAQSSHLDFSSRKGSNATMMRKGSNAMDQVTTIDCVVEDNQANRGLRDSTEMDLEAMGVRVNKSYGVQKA

[12] = biological target: S. japonicus pheromone peptide (SjPep) (Schizosaccharomyces japonicus); assay: cell-based or functional assay
CpSte2 = assay type: cell-based, Candida parapsilosis
[13] = biological target: SpSte2 with peptide proteases (Schizosaccharomyces pombe, UniProt Q00619); assay: SpSte2 biosensor dose-response with complementary and non-complementary proteases; assay type: cell-based
[14] = tested on: CaSte2 with protease CaBar1
[15] = biological target: T3, Candida parapsilosis pheromone GPCR CpSte2 (native) (Candida parapsilosis); assay: cell-based or functional assay
T3 sequence: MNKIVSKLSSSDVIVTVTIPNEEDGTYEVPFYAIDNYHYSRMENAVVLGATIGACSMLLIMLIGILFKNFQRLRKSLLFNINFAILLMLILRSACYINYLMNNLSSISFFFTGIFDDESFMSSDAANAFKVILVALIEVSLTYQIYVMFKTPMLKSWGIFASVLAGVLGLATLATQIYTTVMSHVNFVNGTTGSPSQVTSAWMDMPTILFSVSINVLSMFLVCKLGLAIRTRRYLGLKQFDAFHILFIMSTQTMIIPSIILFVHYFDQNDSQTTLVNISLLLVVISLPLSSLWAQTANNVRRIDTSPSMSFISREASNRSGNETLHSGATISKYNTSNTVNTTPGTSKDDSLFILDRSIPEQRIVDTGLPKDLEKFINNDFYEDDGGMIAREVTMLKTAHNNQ

[16] = biological target: T4, Candida albicans pheromone GPCR CaSte2 (Candida albicans); assay: cell-based or functional assay
T4 chain: T1 sequence

[17] = 1 mM copper, 1 mM peptide, 50 mM Tris/HCl, NaClO4 buffer

Chain of SpSte2 with peptide proteases (Q00619 whole entry): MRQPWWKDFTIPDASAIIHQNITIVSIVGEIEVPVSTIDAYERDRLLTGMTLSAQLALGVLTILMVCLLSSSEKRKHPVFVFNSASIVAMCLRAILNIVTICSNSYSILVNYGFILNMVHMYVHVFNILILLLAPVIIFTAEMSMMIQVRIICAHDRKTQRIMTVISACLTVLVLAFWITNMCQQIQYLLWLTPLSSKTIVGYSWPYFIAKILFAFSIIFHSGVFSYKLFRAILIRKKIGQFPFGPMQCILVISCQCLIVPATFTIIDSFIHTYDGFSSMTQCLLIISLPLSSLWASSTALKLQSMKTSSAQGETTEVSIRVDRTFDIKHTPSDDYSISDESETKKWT

CaPep12A13A (peptide)
LogEC50 [1]: -4.8 log M and -4.5 log M
Top [1]: 170 A.U.
EC50 compared to the native CaPep (orders of magnitude) [2]: 2

Candida albicans Bar1 aspartyl protease (CaBar1) (enzyme)
shift of apparent EC50 on the cognate GPCR with the protease co-expressed (order of magnitude) [3]: 1

DAHK (UniProt P02768 25-28, looked up, fragment)
absorbance maxima of copper complexes [4, 17]: 520 nm

CaPep11A (peptide)
Top [1]: 180 A.U. and 120 A.U.
decrease in maximal activation compared to the native CaPep [2]: 50%

SDS
concentration that does not impact the vitality and function of the live yeast biosensor (live yeast biosensor): up to 0.01%

Saccharomyces cerevisiae Bar1 aspartyl protease (ScBar1) (from UniProt P12630 25-587) (enzyme)
shift of apparent EC50 on the cognate GPCR with the protease co-expressed (order of magnitude) [5]: 1

O.O.[Cl][Cu][Cl] [Copper, CuCl2×2H2O]
absorbance peak ([4]; copper alone in Tris/HCl buffer): 630 nm

WCELPGQGC [A. clavatus peptide]
response of A. clavatus GPCR (A. clavatus GPCR): strongest response

His-Ala-His
redox potential peak of the Cu2+ complex [6]: 1.1 V

Tween20
concentration that does not impact the vitality and function of the live yeast biosensor (live yeast biosensor): up to 0.05%

WCRFAGRIC (SEQ ID NO: 1) or WCRFRGQVC [A. nidulans peptide]
activation of tested GPCRs [7]: did not activate any tested GPCR

GARLTNFGYFEPA [CaPep2A13A]
Hill Slope (CaSte2): 1.2 ± 0.1
Hill Slope [8]: 0.86 ± 0.10
EC50 ([8]; biosensor with protease CaBar1 under intermediate pRPL18B promoter, 10-h incubation): ~70 nM
cleavage by CaBar1 protease [8]: non-cleavable
EC50 [9]: ~0.3 nM

AAH
absorbance maxima of copper complexes [4, 17]: 520 nm

TYEDFLRVYKNWWSFQNPDRPDL [SoPep]
cleavage by ScBar1 and CaBar1 [10]: did not cleave
shift of apparent EC50 by non-complementary proteases [10]: between half and one order of magnitude
shift of apparent EC50 towards higher concentration by complementary protease [10]: one and a half orders of magnitude

BcPep with its second cysteine changed into serine (peptide)
maximal activation compared to the original BcPep [11]: 4 fold

GHK
absorbance maxima of copper complexes [4, 17]: 620 nm
absorbance peaks of nickel complexes ([4]; nickel complexes): did not show absorbance peaks

Schizosaccharomyces japonicus serine carboxypeptidase Sxa2 (SjSxa2) (enzyme)
shift of apparent EC50 on the cognate GPCR with the protease co-expressed (order of magnitude) [12]: 1

CaPep10A (peptide)
LogEC50 [1]: -4.6 log M and -4.2 log M
Top [1]: 180 A.U. and 98 A.U.
EC50 compared to the native CaPep (orders of magnitude) [2]: 2

KKH
absorbance maxima of copper complexes [4, 17]: 620 nm

CaPep12A (peptide)
LogEC50 [1]: -5.3 log M and -5 log M
Top [1]: 580 A.U. and 540 A.U.
EC50 compared to the native CaPep (orders of magnitude) [2]: 2

KPHWTTYGYYEPQ [CpPep]
basal expression (CpSte2; optimized strain yTC453): ~0 A.U.
EC50 (CpSte2; yMJ194, natural pathway): ~3 nM
maximal activation (CpSte2; yMJ194, natural pathway): ~250 A.U.
EC50 (CpSte2; yTC453, optimized): ~9 nM
maximal activation (CpSte2; yTC453, optimized): ~3,300 A.U.

WCALPGQGC [A. oryzae peptide]
response of A. clavatus GPCR (A. clavatus GPCR): strongest response

AfPep: natural fungal peptide containing two cysteine residues (WCHLPGQGC; Synthetic: AfPep)
potential peaks in cyclic voltammogram [6]: None of the tested peptides showed any unique and distinguishable potential peaks

TYADFLRAYQSWNTFVNPDRPNL [SpPep]
EC50 [13]: > 100000 nM
cleavage by ScBar1 and CaBar1 ([13]; ScBar1, CaBar1): did not cleave
shift of apparent EC50 by non-complementary proteases ([13]; SjSxa2 and SoSxa2): between half and one order of magnitude
response with complementary protease ([13]; SpSxa2, within measured concentration range): practically completely attenuated the response

His-His-Trp
redox potential peak of the Cu2+ complex [6]: 0.8 V
absorbance maxima of copper complexes [4, 17]: 620 nm
absorbance peaks of nickel complexes ([4]; nickel complexes): did not show absorbance peaks

GWIGRCGVPGSSC [BcomPep, Baudoinia compniacensis mating peptide]
potential peaks in cyclic voltammogram [6]: None of the tested peptides showed any unique and distinguishable potential peaks

PHGGGWGQ
absorbance maxima of copper complexes [4]: 620 nm
absorbance peaks of nickel complexes [4]: did not show absorbance peaks

CC(C)C[C@H](NC(=O)[C@H](CCCNC(=N)N)NC(=O)[C@H](Cc1ccccc1)NC(=O)CN)C(=O)N[C@H](C(=O)N[C@@H](CC(N)=O)C(=O)N[C@@H](Cc1ccccc1)C(=O)NCC(=O)N[C@@H](Cc1ccc(O)cc1)C(=O)N[C@@H](Cc1ccccc1)C(=O)N[C@@H](CCC(=O)O)C(=O)N1CCC[C@H]1C(=O)N[C@@H](C)C(=O)O)[C@@H](C)O [CaPep13A]
Hill Slope (CaSte2): 0.81 ± 0.04
Hill Slope [8]: 0.94 ± 0.06
cleavage by CaBar1 protease [8]: cleavable
cleavage by CaBar1 protease ([8]; listed as GFRLTNFGYFEPA): specifically cleaved
EC50 ([14]; +CaBar1 strain, lycopene, 1-h preincubation before adding peptides, 8-h incubation): 1000 nM
effect of CaBar1 on color onset, lycopene readout ([14]; liquid culture, same peptide concentrations, 1-h preincubation, 8-h incubation (FIG. 37)): diminishes color onset

CaPep9A10A (peptide)
LogEC50 [1]: -4.7 log M and -4.6 log M
Top [1]: 570 A.U. and 510 A.U.
EC50 compared to the native CaPep (orders of magnitude) [2]: 2

Candida parapsilosis cognate peptide (CpPep)
EC50, mCherry, yMJ194 [15]: 3 nM
EC50, mCherry, yTC453 [15]: 9 nM
maximal activation, mCherry, yMJ194 [15]: 250 A.U.
maximal activation, mCherry, yTC453 [15]: 3300 A.U.

WCVLPGQPC [A. niger peptide]
activation of tested GPCRs [7]: did not activate any tested GPCR

BcPep with its first cysteine changed into serine (peptide)
maximal activation compared to the original BcPep [11]: 4 fold

GFRLTNFGYFEPA (modifications not checked) [CaPep13A]
EC50, lycopene readout, strains preincubated, +CaBar1 [16]: 1000 nM
EC50, lycopene readout, strains preincubated, -CaBar1 [16]: 80 nM
Top [16]: 820 A.U. and 590 A.U.

GARLTNFGYFEPG (modifications not checked) [CaPep2A]
EC50, ymTurquoise2, strain with the protease CaBar1 [16]: 40 nM
EC50, ymTurquoise2, strain without the protease [16]: 50 nM
LogEC50 [16]: -7.4 log M and -6.9 log M
Top [16]: 460 A.U. and 430 A.U.
